Test results reported in patent publication US12286439B2, “Inhibitors of ERK nuclear translocation” (Yeda Research and Development Co. Ltd., priority 2018, dated 2025).

Test system: A2185 and A2352 cells
Assay: Viability assay (methylene blue), two BRAF melanoma cells
Assay type: cell-based
Conditions: 3 μM, 72 hours, 1% FCS
Method: FIGS. 10A, 10B and 10C present data from screening the 20 analogs of Compound Z2 (“C-compounds”) showing three particularly active anti-proliferative compounds. […] A2185 and A2352 cells were grown in 1% FCS containing DMSO (0.1%), EPE peptide, Compound Z56, Compound Z2 or C-compounds (10 μM), for 72 hours. Compounds were categorized according to activity: (1) active, below 40%; (2) moderate activity, below 80%; (3) not active, above 80%. […] A2185 and A2352 cells were grown in 1% FCS containing DMSO (0.1%), EPE peptide (10 μM), compounds Z56, Z2 or selected C-compounds (3 μM), for 72 hours. Empty squares/circles represent individual data points of proliferation. Full squares/circles indicate average proliferation of 2 independent experiments in triplicate±SE. Bold horizontal line defines arbitrary activity threshold of activity below 40%. FIG. 10C presents dose response curves of active C-compounds compounds. A2185 and A2352 were grown in 1% FCS media containing DMSO (0.1%), EPE peptide, Z56, Z2 (10 μM) or compounds C17, C22 and C23 (0.1-10 μM), for 72 hours. […] Cell viability was measured by staining with methylene blue. Data presented as percentage of DMSO control. Bar graphs represent average of 2 independent experiments done in triplicates ±SE.
FIG. 13 presents a graph showing the effect of analogs of Compound C17 (“D-compounds”) on cell viability at a concentration of 10 μM. A2185 and A2352 cells were grown in 1% FCS media containing DMSO (0.1%) EPE peptide (10 μM), Compounds Z56, Z2, C17 (10 μM) as controls, and D-Compounds (10 μM), for 72 hours. Viable cells were measured by staining with methylene blue. Bar graphs represent average of 2 independent experiments done in triplicates. Data presented as percentage of DMSO proliferation ±standard error.
FIG. 14 presents a graph showing the effect of analogs of Compound C17 (“D-compounds”) on cell viability at a concentration of 1 μM. A2185 and A2352 cells were grown in 1% FCS media containing DMSO (0.1%), EPE peptide (10 μM), Compounds Z56, Z2 and C17 (1 and 10 μM) as controls, and D-compounds (1 μM), for 72 hours. Viable cells were measured by staining with methylene blue. Bar graphs represent average of 2 independent experiments done in triplicates. Data presented as percentage of DMSO proliferation ±standard error.
Cells were seeded at low confluence into 24, 48 or 96-well plates in complete medium. After 24 hours, medium was replaced by 1% FCS (fetal calf serum) containing appropriate treatments. Fresh medium containing the same agents was replaced every day. After 72 or 96 hours of treatment, cells were fixed with 4% formaldehyde overnight at 23° C., washed once with 0.1 M borate buffer (pH 8.5) for 10 minutes, and stained with of 1% methylene blue in 0.1 M borate buffer (pH 8.5) for 30 minutes. Excess stain was washed out with distilled water. Color was extracted by adding 0.1 M HCl (3 hours, 23° C.), and absorbance measured at 595 nm in an ELISA reader. For time course experiments, attached cells were fixed and measured at 0, 24, 48, 72 and 96 hours. For dose-response experiments, cells were treated with indicated concentrations of reagent, fixed and stained after 72 hours as above.
The ability of the selected compounds to reduce cell viability of two BRAF melanoma cells (A2185 and A2352) was evaluated. Initially, all compounds were assayed at a relatively high concentration of 10 μM.

O=C(OC1C=CS(=O)(=O)C1)c1ccccc1 (stereo not shown) [Compound Z2]
cell viability at lower concentration: variable activity
